Test results published in patent publication US20200046647A1, “EXOSOME-BASED NANOPARTICLE COMPOSITE AND METHOD FOR PREPARING THE SAME” (Korea University Research and Business Foundation, Sejong …, priority 2017, published 2020).
Where a name gives a salt, the structure may show the parent alone.

Test: Drug release pattern analysis (dialysis bag, phosphate-buffered saline)
Type: physicochemical
Details: within 24 h; body temperature (37° C.); PBS pH 7.4; FIG. 7
Protocol: The core/shell nanoparticle composite prepared in Example 1-1 was sampled, placed in a dialysis bag (molecular weight filtration limit: 100,000), and impregnated with 30 ml of phosphate-buffered saline (PBS, pH 7.4). The amount of the sampled nanoparticle composite was determined such that 10 mg of the doxorubicin-HCl was present in the sample. The phosphate-buffered saline was stirred at 100 rpm while maintaining the temperature at 37.5° C. After the lapse of a predetermined time, 5 ml of the phosphate-buffered saline was sampled. The amount of the drug released was measured by […]. After sampling, the remaining phosphate-buffered saline was completely removed and replaced with a fresh one. The amount of the doxorubicin-HCl released was measured using a UV-Vis spectrometer (G1103A, Agilent, USA).
For comparison, each of doxorubicin-HCl (10 mg) and the liposome-based core/shell nanoparticle composite prepared in Comparative Example 1 (containing 10 mg of doxorubicin-HCl) was added to 10 mL of distilled water. The release behavior of the drug in the aqueous solution was measured by the same procedure as described above.

drug released into phosphate-buffered saline: > 95%
SMILES: COc1cccc2c1C(=O)c1c(O)c3c(c(O)c1C2=O)C[C@@](O)(C(=O)CO)C[C@@H]3O[C@H]1C[C@H](N)[C@H](O)[C@H](C)O1 [doxorubicin-HCl]
